Source: patent US20220119379A1, “IMMUNOMODULATOR” (HITGEN INC., priority 2019, published 2022)
Read-outs that look alike come from different tables or passages of the source.

Tests used:
[1] = biological target: Sting protein (Homo sapiens, UniProt Q86WV6); assay: Binding affinity test of the compound and Sting protein by protein thermal transfer test (TSA); conditions: Kd fitted from change of ΔTm with compound concentration
Protocol: The protein thermal transfer test (TSA) was used to determine the binding affinity of the compound to Sting protein. The 100 ug/ml Sting protein was mixed with different concentrations of the compound and 5× SYPRO Orange dye in a buffer of 20 mM Hepes, 150 mM NaCl, 1 mM MgCl2, 1 mM DTT, pH=7.5. The protein dissolution curve was measured on a qPCR instrument, the Tm value was fitted with Protein Thermal Shift Software 1.3 software, and the Tm difference of the protein was calculated when different concentrations of compound and no compound were added. The dissociation constant Kd was fitted and obtained according to the change of ΔTm with the concentration of the compound. […] The Kd value of each compound is classified according to the following instructions: […]

[2] = biological target: T1, Sting protein (Homo sapiens, UniProt Q86WV6, G230A/H232R/R293Q/R71H); assay: Agonistic function test on Sting protein: IFN-β and CXCL10 (IP10) cytokines produced by THP1 cells (ELISA); type: cell-based; conditions: for EC50: 18 hours, ELISA of supernatant; for activity of stimulating IFN-β and CXCL10 (IP10) cytokines produced by THP1 cells (in words): listed compounds compared with the reference compound
T1 construct: endogenous in cells; host or cells: THP1 cells (Shanghai Cell Bank)
T1 sequence (Q86WV6 whole entry R71H/G230A/H232R/R293Q): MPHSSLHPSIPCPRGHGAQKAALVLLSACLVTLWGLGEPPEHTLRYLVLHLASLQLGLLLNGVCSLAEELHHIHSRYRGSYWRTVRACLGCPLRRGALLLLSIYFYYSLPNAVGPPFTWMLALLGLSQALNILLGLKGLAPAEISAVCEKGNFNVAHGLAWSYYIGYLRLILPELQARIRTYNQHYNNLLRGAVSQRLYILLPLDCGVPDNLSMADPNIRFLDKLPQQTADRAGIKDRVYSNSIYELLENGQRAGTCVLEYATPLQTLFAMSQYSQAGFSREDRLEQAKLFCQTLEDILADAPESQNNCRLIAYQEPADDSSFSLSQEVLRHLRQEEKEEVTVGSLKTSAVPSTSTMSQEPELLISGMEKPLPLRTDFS
Protocol: In this experiment, the function of sting agonist was evaluated by detecting the changes of IFN-β and CXCL10 (IP10) cytokines produced by human peripheral blood mononuclear cell line THP1 cells (Shanghai Cell Bank) stimulated by the compounds. On the first day of the experiment, the ELISA plate was coated according to the IFN-β (R&D, #DY814-05) and IP10 (BD, #550926) ELISA test kit instructions. The compound was dissolved into DMSO stock solution and diluted with culture medium to a 2× working concentration, added to a 96-well plate, 100 μL per well. The THP1 cells in the logarithmic growth phase were taken to count, and were diluted to a concentration of 2*10^6/mL, added to the above-mentioned 96-well plate containing the compounds, with […], per well, mixed well, and incubated in a 37° C., 5% CO2 incubator for 18 hours. On the second day, the above cell culture supernatant was taken, 100 μL per well, and tested according to IFN-β and IP10 ELISA test kits respectively. The OD450 value was read, and converted into IFN-β and IP10 concentration according to the standard curve, and fitted with GraphPad 5.0 to calculate the EC50 value of the dose-efficiency curve.

Sting protein (Homo sapiens, UniProt Q86WV6), sequence (Q86WV6 whole entry H232R, species assumed): as the sequence (Q86WV6 whole entry R71H/G230A/H232R/R293Q) above, with H71R, A230G, Q293R counted along it

Compound	Kd [1]	EC50 ([2]; read-out: IFN-β EC50)	EC50 ([2]; read-out: IP10 EC50)	activity of stimulating IFN-β and CXCL10 (IP10) cytokines produced by THP1 cells (in words) [2]
CCc1nc(C)sc1C(=O)Nc1nc2cc(C(N)=O)cc(OCCCN3CCN(C(C)=O)CC3)c2n1C/C=C/Cn1c(NC(=O)c2cc(C)nn2CC)nc2cc(C(N)=O)cc(OC)c21 [Example 11]	1 to 10 µM	100 to 1000 nM	10 to 100 nM	–
CCc1nc(C)sc1C(=O)Nc1nc2cc(C(N)=O)cc(OCCCN3CCOCC3)c2n1C/C=C/Cn1c(NC(=O)c2c(F)c(C)nn2CC)nc2cc(C(N)=O)cc(SC)c21 [Example 49]	1 to 10 µM	10 to 100 nM	< 10 nM	comparable or even higher activity
CCc1nc(C)sc1C(=O)Nc1nc2cc(C(N)=O)cc(OCCCN3CCN(CC)CC3)c2n1C/C=C/Cn1c(NC(=O)c2cc(C)nn2CC)nc2cc(C(N)=O)cc(OC)c21 [Example 8]	1 to 10 µM	100 to 1000 nM	10 to 100 nM	–
CCc1nc(C)sc1C(=O)Nc1nc2cc(C(N)=O)cc(OCCCN3CCN(C)CC3)c2n1C/C=C/Cn1c(NC(=O)c2cc(C)nn2CC)nc2cc(C(N)=O)cc(OC)c21 [Example 7, (E)-N-(5-carbamoyl-1-(4-(5-carbamoyl-2-(1-ethyl-3-methyl-1H-pyrazole-5-formylamino)-7-methoxy-1H-benzo[d]imidazol-1-yl)but-2-en-1-yl)-7-(3-(4-methylpiperazin-1-yl)propoxy)-1H-benzo[d]imidazol-2-yl)-4-ethyl-2-methylthiazole-5-formylamide]	1 to 10 µM	100 to 1000 nM	100 to 1000 nM	–
CCc1nc(C)sc1C(=O)Nc1nc2cc(C(N)=O)cc(SC)c2n1C/C=C/Cn1c(NC(=O)c2cc(C)nn2CC)nc2cc(C(N)=O)cc(OCCCN3CCN(C(C)=O)CC3)c21 [Example 41]	1 to 10 µM	100 to 1000 nM	10 to 100 nM	–
CCc1nc(C)sc1C(=O)Nc1nc2cc(C(N)=O)cc(OCCCN3CCOCC3)c2n1C/C=C/Cn1c(NC(=O)c2cc(C)nn2CC)nc2cc(C(N)=O)cc(OC)c21 [Example 1]	1 to 10 µM	100 to 1000 nM	10 to 100 nM	–
CCc1nc(C)sc1C(=O)Nc1nc2cc(C(N)=O)cc(OCCCN3CCN(C(=O)OC)CC3)c2n1C/C=C/Cn1c(NC(=O)c2cc(C)nn2CC)nc2cc(C(N)=O)cc(SC)c21 [Example 40]	1 to 10 µM	10 to 100 nM	–	comparable or even higher activity
CCc1nc(C)sc1C(=O)Nc1nc2cc(C(N)=O)cc(OCCCN3CCN(C(C)C)CC3)c2n1C/C=C/Cn1c(NC(=O)c2cc(C)nn2CC)nc2cc(C(N)=O)cc(SC)c21 [Example 18]	1 to 10 µM	100 to 1000 nM	10 to 100 nM	–
CCc1nc(C)sc1C(=O)Nc1nc2cc(C(N)=O)cc(SC)c2n1C/C=C/Cn1c(NC(=O)c2c(F)c(C)nn2CC)nc2cc(C(N)=O)cc(OCCCN3CCOCC3)c21 [Example 52]	1 to 10 µM	10 to 100 nM	< 10 nM	comparable or even higher activity
CCn1nc(C)cc1C(=O)Nc1nc2cc(C(N)=O)cc(OCCCN3CCOCC3)c2n1C/C=C/Cn1c(NC(=O)c2cc(C)nn2CC)nc2cc(C(N)=O)cc(SC)c21 [Example 54, (E)-1-(4-(5-carbamoyl-2-(1-ethyl-3-methyl-1H-pyrazole-5-formylamino)-7-(3-morpholinopropoxy)-1H-benzo[d]imidazol-1-yl)but-2-en-1-yl)-2-(1-ethyl-3-methyl-1H-pyrazole-5-carboxamino)-7-(methylthio)-1H-benzo[d]imidazole-5-formylamide]	1 to 10 µM	–	–	–
CCc1nc(C)sc1C(=O)Nc1nc2cc(C(N)=O)cc(SC)c2n1C/C=C/Cn1c(NC(=O)c2cc(C)nn2CC)nc2cc(C(N)=O)cc(OCCCN3CCN(CC)CC3)c21 [Example 21]	1 to 10 µM	100 to 1000 nM	10 to 100 nM	–
CCC(=O)N1CCN(CCCOc2cc(C(N)=O)cc3nc(NC(=O)c4cc(C)nn4CC)n(C/C=C/Cn4c(NC(=O)c5sc(C)nc5CC)nc5cc(C(N)=O)cc(OC)c54)c23)CC1 [Example 30]	1 to 10 µM	100 to 1000 nM	10 to 100 nM	–
CCc1nc(C)sc1C(=O)Nc1nc2cc(C(N)=O)cc(OCCCN3CCN(C)CC3)c2n1C/C=C/Cn1c(NC(=O)c2cc(C)nn2CC)nc2cc(C(N)=O)cc(SC)c21 [Example 16]	1 to 10 µM	–	100 to 1000 nM	–
CCc1nc(C)sc1C(=O)Nc1nc2cc(C(N)=O)cc(OCCCN3CCN(C4CC4)CC3)c2n1C/C=C/Cn1c(NC(=O)c2cc(C)nn2CC)nc2cc(C(N)=O)cc(OC)c21 [Example 10]	1 to 10 µM	100 to 1000 nM	10 to 100 nM	–
CCn1nc(C)c(F)c1C(=O)Nc1nc2cc(C(N)=O)cc(OCCCN3CCOCC3)c2n1C/C=C/Cn1c(NC(=O)c2c(F)c(C)nn2CC)nc2cc(C(N)=O)cc(SC)c21 [Example 53, (E)-1-(4-(5-carbamoyl-2-(1-ethyl-4-fluoro-3-methyl-1H-pyrazole-5-carboxamino)-7-(3-morpholinopropoxy)-1H-benzo[d]imidazol-1-yl)but-2-en-1-yl)-2-(1-ethyl-4-fluoro-3-methyl-1H-pyrazole-5-formylamino)-7-(methylthio)-1H-benzo[d]imidazole-5-carboxamide]	1 to 10 µM	10 to 100 nM	< 10 nM	comparable or even higher activity
CCn1nc(C)cc1C(=O)Nc1nc2cc(C(N)=O)cc(SC)c2n1C/C=C/Cn1c(NC(=O)c2c(F)c(C)nn2CC)nc2cc(C(N)=O)cc(OCCCN3CCOCC3)c21 [Example 51, (E)-1-(4-(5-(5-carbamoyl-2-)(1-styrene-3-methyl-1H-pyrazole-5-formylamino)-7-(methylthio)-1H-benzo[d]imidazol-1-yl)but-2-en-1-yl)-2-(1-styrene-4-fluoro-3-methyl-1H-pyrazole-5-anthralamido)-7-(3-morpholinopropoxy)-1H-benzo[d]imidazole-5-formylamide]	1 to 10 µM	10 to 100 nM	< 10 nM	comparable or even higher activity
CCc1nc(C)sc1C(=O)Nc1nc2cc(C(N)=O)cc(OC)c2n1C/C=C/Cn1c(NC(=O)c2cc(C)nn2CC)nc2cc(C(N)=O)cc(OCCCN3CCN(CC)CC3)c21 [Example 13]	1 to 10 µM	100 to 1000 nM	10 to 100 nM	–
CCc1nc(C)sc1C(=O)Nc1nc2cc(C(N)=O)cc(OCCCN3CCN(C(C)=O)CC3)c2n1C/C=C/Cn1c(NC(=O)c2cc(C)nn2CC)nc2cc(C(N)=O)cc(SC)c21 [Example 35]	1 to 10 µM	10 to 100 nM	10 to 100 nM	comparable or even higher activity
CCc1nc(C)sc1C(=O)Nc1nc2cc(C(N)=O)cc(OCCCN3CCN(C(C)C)CC3)c2n1C/C=C/Cn1c(NC(=O)c2cc(C)nn2CC)nc2cc(C(N)=O)cc(OC)c21 [Example 9]	1 to 10 µM	100 to 1000 nM	10 to 100 nM	–
CCc1nc(C)sc1C(=O)Nc1nc2cc(C(N)=O)cc(OCCCN3CCOCC3)c2n1C/C=C/Cn1c(NC(=O)c2sc(C)nc2CC)nc2cc(C(N)=O)cc(SC)c21 [Example 50]	1 to 10 µM	10 to 100 nM	10 to 100 nM	comparable or even higher activity
CCc1nc(C)sc1C(=O)Nc1nc2cc(C(N)=O)cc(OCCCN3CCOCC3)c2n1C/C=C/Cn1c(NC(=O)c2cc(C)nn2CC)nc2cc(C(N)=O)cc(SC)c21 [Example 4]	1 to 10 µM	10 to 100 nM	< 10 nM	comparable or even higher activity
CCc1nc(C)sc1C(=O)Nc1nc2cc(C(N)=O)cc(OC)c2n1C/C=C/Cn1c(NC(=O)c2cc(C)nn2CC)nc2cc(C(N)=O)cc(SCCCN3CCOCC3)c21 [Example 6]	1 to 10 µM	100 to 1000 nM	100 to 1000 nM	–
CCc1nc(C)sc1C(=O)Nc1nc2cc(C(N)=O)cc(OC)c2n1C/C=C/Cn1c(NC(=O)c2cc(C)nn2CC)nc2cc(C(N)=O)cc(OCCCN3CCN(C)CC3)c21 [Example 12]	1 to 10 µM	–	100 to 1000 nM	–
CCc1nc(C)sc1C(=O)Nc1nc2cc(C(N)=O)cc(OC)c2n1C/C=C/Cn1c(NC(=O)c2sc(C)nc2CC)nc2cc(C(N)=O)cc(OCCCN3CCOCC3)c21 [Example 3]	1 to 10 µM	100 to 1000 nM	10 to 100 nM	–
CCc1nc(C)sc1C(=O)Nc1nc2cc(C(N)=O)cc(OC)c2n1C/C=C/Cn1c(NC(=O)c2cc(C)nn2CC)nc2cc(C(N)=O)cc(OCCCN3CCN(C(C)C)CC3)c21 [Example 14]	1 to 10 µM	100 to 1000 nM	100 to 1000 nM	–
